This assay deals with MV-4-11 cells. In words: Gene expression microarray analysis (Affymetrix PrimeView) and GSEA. It counts as cell-based, human. On the set-up: RFU PODN (11730768_x_at) / Fold change /veh PODN (11730768_x_at) / RFU LINC00158 (11744669_a_at) / Fold change /veh LINC00158 (11744669_a_at) / RFU DUSP10 (11751237_a_at) / Fold change /veh DUSP10 (11751237_a_at) / RFU ID3 (11757404_x_at) / Fold change /veh ID3 (11757404_x_at) / RFU PLEKHG5 (11737974_s_at) / Fold change /veh PLEKHG5 (11737974_s_at) / RFU LRRC4B (11730491_at) / Fold change /veh LRRC4B (11730491_at) / RFU GIMAP4 (11747438_a_at) / Fold change /veh GIMAP4 (11747438_a_at) / RFU KRT8 (11758183_x_at) / Fold change /veh KRT8 (11758183_x_at) / RFU CNN1 (11734310_a_at) / Fold change /veh CNN1 (11734310_a_at) / RFU VPS37D (11726825_at) / Fold change /veh VPS37D (11726825_at) / RFU C10orf10 (11716522_x_at) / Fold change /veh C10orf10 (11716522_x_at) / RFU KIR2DL2 /// KIR2DL4 /// KIR2DL5A /// KIR2DL5B /// KIR2DS1 /// KIR2DS2 /// KIR2DS3 /// KIR2DS4 /// KIR3DL3 /// KIR3DL3 /// KIR3DS1 (11738374_at) / Fold change /veh KIR2DL2 /// KIR2DL4 /// KIR2DL5A /// KIR2DL5B /// KIR2DS1 /// KIR2DS2 /// KIR2DS3 /// KIR2DS4 /// KIR3DL3 /// KIR3DL3 /// KIR3DS1 (11738374_at) / RFU C1QL1 (11718748_at) / Fold change /veh C1QL1 (11718748_at) / RFU TMPRSS4 (11747572_a_at) / Fold change /veh TMPRSS4 (11747572_a_at) / RFU HAMP (11756126_x_at) / Fold change /veh HAMP (11756126_x_at) / RFU RNFT2 (11725882_a_at) / Fold change /veh RNFT2 (11725882_a_at) / RFU NR4A2 (11747474_a_at) / Fold change /veh NR4A2 (11747474_a_at) / RFU ABCC12 (11746883_a_at) / Fold change /veh ABCC12 (11746883_a_at) / RFU TMEM136 (11760407_x_at) / Fold change /veh TMEM136 (11760407_x_at) / RFU CLDN22 /// WWC2 (11732394_at) / Fold change /veh CLDN22 /// WWC2 (11732394_at) / RFU HLA-DPB1 (11760878_x_at) / Fold change /veh HLA-DPB1 (11760878_x_at) / RFU SPINT1 (11716480_a_at) / Fold change /veh SPINT1 (11716480_a_at) / RFU GAP43 (11754022_s_at) / Fold change /veh GAP43 (11754022_s_at) / RFU A4GNT (11735810_at) / Fold change /veh A4GNT (11735810_at) / RFU PRB3 (11715151_x_at) / Fold change /veh PRB3 (11715151_x_at) / RFU TUBB4B (11761932_at) / Fold change /veh TUBB4B (11761932_at) / RFU CAPN14 (11732068_a_at) / Fold change /veh CAPN14 (11732068_a_at) / RFU TMCC2 (11721928_a_at) / Fold change /veh TMCC2 (11721928_a_at) / RFU IRGQ (11745062_a_at) / Fold change /veh IRGQ (11745062_a_at) / RFU FAM174B (11720279_a_at) / Fold change /veh FAM174B (11720279_a_at) / RFU TMPRSS4 (11748680_a_at) / Fold change /veh TMPRSS4 (11748680_a_at) / RFU FAM212B (11763350_a_at) / Fold change /veh FAM212B (11763350_a_at) / RFU PLEKHG5 (11743358_a_at) / Fold change /veh PLEKHG5 (11743358_a_at) / RFU ZSCAN30 (11745921_a_at) / Fold change /veh ZSCAN30 (11745921_a_at) / RFU CMKLR1 (11741424_a_at) / Fold change /veh CMKLR1 (11741424_a_at) / RFU LOC101060620 /// MAPK8IP1 (11723275_at) / Fold change /veh LOC101060620 /// MAPK8IP1 (11723275_at) / RFU SPTSSB (11747773_x_at) / Fold change /veh SPTSSB (11747773_x_at) / RFU PRSS12 (11739890_at) / Fold change /veh PRSS12 (11739890_at) / RFU BIN1 (11741810_x_at) / Fold change /veh BIN1 (11741810_x_at) / RFU WNT11 (11732464_a_at) / Fold change /veh WNT11 (11732464_a_at) / RFU C10orf10 (11716521_a_at) / Fold change /veh C10orf10 (11716521_a_at) / RFU C5orf56 (11738089_at) / Fold change /veh C5orf56 (11738089_at) / RFU CYB561 (11721691_x_at) / Fold change /veh CYB561 (11721691_x_at) / RFU ANKRD19P (11752326_a_at) / Fold change /veh ANKRD19P (11752326_a_at) / RFU OR2T12 /// OR2T33 /// OR2T8 (11738714_s_at) / Fold change /veh OR2T12 /// OR2T33 /// OR2T8 (11738714_s_at) / RFU VCAN (11748164_a_at) / Fold change /veh VCAN (11748164_a_at) / RFU JSRP1 (11732532_at) / Fold change /veh JSRP1 (11732532_at) / RFU KRTAP10-11 (11738290_x_at) / Fold change /veh KRTAP10-11 (11738290_x_at) / RFU MYO3A (11730013_a_at) / Fold change /veh MYO3A (11730013_a_at) / RFU EBF3 (11725865_a_at) / Fold change /veh EBF3 (11725865_a_at) / RFU CAMK2N1 (11719241_x_at) / Fold change /veh CAMK2N1 (11719241_x_at) / RFU C5orf56 (11738088_a_at) / Fold change /veh C5orf56 (11738088_a_at) / RFU OLFML3 (11715873_a_at) / Fold change /veh OLFML3 (11715873_a_at) / RFU LOC100653217 /// NTM (11731650_a_at) / Fold change /veh LOC100653217 /// NTM (11731650_a_at) / RFU MAPK11 (11762145_a_at) / Fold change /veh MAPK11 (11762145_a_at) / RFU FIZ1 (11724087_x_at) / Fold change /veh FIZ1 (11724087_x_at) / RFU OASL (11726364_x_at) / Fold change /veh OASL (11726364_x_at) / RFU SOX15 (11748057_x_at) / Fold change /veh SOX15 (11748057_x_at) / RFU CD79A (11719716_a_at) / Fold change /veh CD79A (11719716_a_at) / RFU HIST1H1D (11736915_at) / Fold change /veh HIST1H1D (11736915_at) / RFU CASKIN2 (11723855_a_at) / Fold change /veh CASKIN2 (11723855_a_at) / RFU LOC730098 (11760151_x_at) / Fold change /veh LOC730098 (11760151_x_at) / RFU OR4N2 (11742367_at) / Fold change /veh OR4N2 (11742367_at) / RFU PRRT2 (11749266_a_at) / Fold change /veh PRRT2 (11749266_a_at) / RFU SNX32 (11753110_a_at) / Fold change /veh SNX32 (11753110_a_at) / RFU CDHR5 (11726645_a_at) / Fold change /veh CDHR5 (11726645_a_at) / RFU RCAN1 (11760418_a_at) / Fold change /veh RCAN1 (11760418_a_at) / RFU FAM167A (11723789_a_at) / Fold change /veh FAM167A (11723789_a_at) / RFU FAM26E (11764081_at) / Fold change /veh FAM26E (11764081_at) / RFU ISYNA1 (11749810_s_at) / Fold change /veh ISYNA1 (11749810_s_at) / RFU ACY1 (11761880_at) / Fold change /veh ACY1 (11761880_at) / RFU 11764098_at / Fold change /veh 11764098_at / RFU SAMD14 (11745864_x_at) / Fold change /veh SAMD14 (11745864_x_at) / RFU NPB (11741838_a_at) / Fold change /veh NPB (11741838_a_at) / RFU TMPRSS6 (11731388_a_at) / Fold change /veh TMPRSS6 (11731388_a_at) / RFU KRTAP10-2 (11738614_at) / Fold change /veh KRTAP10-2 (11738614_at) / RFU ARHGAP8 /// PRR5-ARHGAP8 (11727945_x_at) / Fold change /veh ARHGAP8 /// PRR5-ARHGAP8 (11727945_x_at) / RFU KRTAP5-7 /// NADSYN1 (11734609_at) / Fold change /veh KRTAP5-7 /// NADSYN1 (11734609_at) / RFU RASL12 (11751679_a_at) / Fold change /veh RASL12 (11751679_a_at) / RFU CDKN2B (11736163_a_at) / Fold change /veh CDKN2B (11736163_a_at) / RFU PRF1 (11729649_at) / Fold change /veh PRF1 (11729649_at) / RFU, ZNF638 /// ZNF638-IT1 / Fold change vs veh, ZNF638 /// ZNF638-IT1 / RFU, PANK3 / Fold change vs veh, PANK3 / RFU, SH3YL1 / Fold change vs veh, SH3YL1 / RFU, ZEB2 / Fold change vs veh, ZEB2 / RFU, NRIP1 / Fold change vs veh, NRIP1 / RFU, PTTG1IP / Fold change vs veh, PTTG1IP / RFU, CAPN2 / Fold change vs veh, CAPN2 / RFU, MED14 / Fold change vs veh, MED14 / RFU, SNORA58 / Fold change vs veh, SNORA58 / RFU, C1orf63 / Fold change vs veh, C1orf63 / RFU, LRRFIP1 / Fold change vs veh, LRRFIP1 / RFU, NDUFAF7 / Fold change vs veh, NDUFAF7 / RFU, SLC12A2 / Fold change vs veh, SLC12A2 / RFU, IBTK / Fold change vs veh, IBTK / RFU, ESF1 / Fold change vs veh, ESF1 / Fold change vs veh, TMEM50B / RFU, TAOK1 / Fold change vs veh, TAOK1 / RFU, ACBD3 / Fold change vs veh, ACBD3 / RFU, TMA16 / Fold change vs veh, TMA16 / RFU, RWDD3 / Fold change vs veh, RWDD3 / RFU, BCAT1 / Fold change vs veh, BCAT1 / RFU, EDEM3 / Fold change vs veh, EDEM3 / RFU, TMEM33 / Fold change vs veh, TMEM33 / RFU, WDR75 / Fold change vs veh, WDR75 / RFU, AHCTF1 / Fold change vs veh, AHCTF1 / RFU, TFRC / Fold change vs veh, TFRC / RFU, ZDHHC17 / Fold change vs veh, ZDHHC17 / RFU, NOM1 / Fold change vs veh, NOM1 / RFU, ARL8B / Fold change vs veh, ARL8B / RFU, ZBTB11 / Fold change vs veh, ZBTB11 / RFU, TAMM41 / Fold change vs veh, TAMM41 / RFU, KIAA1704 /// LOC100996395 / Fold change vs veh, KIAA1704 /// LOC100996395 / RFU, ING1 / Fold change vs veh, ING1 / RFU, TRMT61B / Fold change vs veh, TRMT61B / RFU, FUBP3 / Fold change vs veh, FUBP3 / RFU, TP53 / Fold change vs veh, TP53 / RFU, TNKS2 / Fold change vs veh, TNKS2 / RFU, ZFP14 / Fold change vs veh, ZFP14 / RFU, ACTR2 / Fold change vs veh, ACTR2 / RFU, PPP3R1 / Fold change vs veh, PPP3R1 / RFU, PIK3R1 / Fold change vs veh, PIK3R1 / RFU, HNRNPA1 / Fold change vs veh, HNRNPA1 / RFU, RNF170 / Fold change vs veh, RNF170 / RFU, ZNF28 / Fold change vs veh, ZNF28 / RFU, RNGTT / Fold change vs veh, RNGTT / RFU, OGT / Fold change vs veh, OGT / RFU, BRD1 / Fold change vs veh, BRD1 / RFU, MARS / Fold change vs veh, MARS / RFU, ZNF655 / Fold change vs veh, ZNF655 / RFU, FAHD1 / Fold change vs veh, FAHD1 / RFU, BDP1 / Fold change vs veh, BDP1 / RFU, LRRCC1 / Fold change vs veh, LRRCC1 / RFU, ARID1A / Fold change vs veh, ARID1A / RFU, ZNF146 / Fold change vs veh, ZNF146 / RFU, ZNF330 / Fold change vs veh, ZNF330 / RFU, GPN3 / Fold change vs veh, GPN3 / RFU, C9orf123 / Fold change vs veh, C9orf123 / RFU, N4BP2L2 / Fold change vs veh, N4BP2L2 / RFU, ARFIP1 / Fold change vs veh, ARFIP1 / RFU, FAM179B / Fold change vs veh, FAM179B / RFU, BCL10 / Fold change vs veh, BCL10 / RFU, UHRF1BP1L / Fold change vs veh, UHRF1BP1L / RFU, BET1 / Fold change vs veh, BET1 / RFU, CNOT2 / Fold change vs veh, CNOT2 / RFU, ZNF268 / Fold change vs veh, ZNF268 / Fold change vs veh, ZNF507 / RFU, DGCR2 / Fold change vs veh, DGCR2 / RFU, WDSUB1 / Fold change vs veh, WDSUB1 / Fold change vs veh, HSP90B1 /// MIR3652 / RFU, ADSS / Fold change vs veh, ADSS / RFU, GK / Fold change vs veh, GK / RFU, ZNF148 / Fold change vs veh, ZNF148 / RFU, TAF9 / Fold change vs veh, TAF9 / RFU, SLC1A5 / Fold change vs veh, SLC1A5 / RFU, SLMO2 / Fold change vs veh, SLMO2 / RFU, ABCC4 / Fold change vs veh, ABCC4 / RFU, LOC101060439 /// RAP1B / Fold change vs veh, LOC101060439 /// RAP1B / RFU, RFX7 / Fold change vs veh, RFX7 / RFU, GTPBP10 / Fold change vs veh, GTPBP10 / RFU, CNEP1R1 / Fold change vs veh, CNEP1R1 / RFU, BIVM-ERCC5 /// ERCC5 / Fold change vs veh, BIVM-ERCC5 /// ERCC5 / RFU, ILF3 / Fold change vs veh, ILF3 / RFU 11762660_at / Fold change /veh 11762660_at / RFU VCAN (11757783_s_at) / Fold change /veh VCAN (11757783_s_at) / RFU DDX43 (11728927_at) / Fold change /veh DDX43 (11728927_at) / RFU KRT8 (11758188_x_at) / Fold change /veh KRT8 (11758188_x_at) / RFU NKD1 (11759106_at) / Fold change /veh NKD1 (11759106_at) / RFU SRD5A1 (11742802_a_at) / Fold change /veh SRD5A1 (11742802_a_at) / RFU TPSAB1 /// TPSB2 (11721975_s_at) / Fold change /veh TPSAB1 /// TPSB2 (11721975_s_at) / RFU GSTM3 (11746129_a_at) / Fold change /veh GSTM3 (11746129_a_at) / RFU IL23R (11737362_x_at) / Fold change /veh IL23R (11737362_x_at) / RFU TMEM51 (11727254_a_at) / Fold change /veh TMEM51 (11727254_a_at) / RFU PIWIL2 (11732686_x_at) / Fold change /veh PIWIL2 (11732686_x_at) / RFU ORM1 (11744905_x_at) / Fold change /veh ORM1 (11744905_x_at) / RFU CCDC152 (11743942_at) / Fold change /veh CCDC152 (11743942_at) / RFU ECM1 (11717891_a_at) / Fold change /veh ECM1 (11717891_a_at) / RFU IL23R (11748794_a_at) / Fold change /veh IL23R (11748794_a_at) / RFU TNFAIP8L3 (11732012_x_at) / Fold change /veh TNFAIP8L3 (11732012_x_at) / RFU MBOAT4 (11741988_at) / Fold change /veh MBOAT4 (11741988_at) / RFU 11764193_at / Fold change /veh 11764193_at / RFU TMEM53 (11763286_at) / Fold change /veh TMEM53 (11763286_at) / RFU MAGEB2 (11727129_at) / Fold change /veh MAGEB2 (11727129_at) / RFU TMEM200A (11744735_a_at) / Fold change /veh TMEM200A (11744735_a_at) / RFU CCDC152 (11751479_a_at) / Fold change /veh CCDC152 (11751479_a_at) / RFU FAM211A (11726209_a_at) / Fold change /veh FAM211A (11726209_a_at) / RFU RGS16 (11746705_a_at) / Fold change /veh RGS16 (11746705_a_at) / RFU VCAN (11755009_s_at) / Fold change /veh VCAN (11755009_s_at) / RFU RHOB (11743442_s_at) / Fold change /veh RHOB (11743442_s_at) / RFU RGS16 (11720943_a_at) / Fold change /veh RGS16 (11720943_a_at) / RFU RGS16 (11720944_at) / Fold change /veh RGS16 (11720944_at) / RFU, VPS4B / Fold change vs veh, VPS4B / RFU, CREB1 / Fold change vs veh, CREB1 / RFU, DNAJC13 / Fold change vs veh, DNAJC13 / RFU, GNAQ / Fold change vs veh, GNAQ / RFU, CDK5R1 / Fold change vs veh, CDK5R1 / RFU, ZRANB3 / Fold change vs veh, ZRANB3 / RFU, CUL4A / Fold change vs veh, CUL4A / RFU, CCNY / Fold change vs veh, CCNY / RFU, UFL1 / Fold change vs veh, UFL1 / RFU, COG3 / Fold change vs veh, COG3 / RFU, DIAPH2 / Fold change vs veh, DIAPH2 / RFU, SKA2 / Fold change vs veh, SKA2 / RFU, AFF3 / Fold change vs veh, AFF3 / RFU, LMF1 / Fold change vs veh, LMF1 / RFU, IPO11 / Fold change vs veh, IPO11 / RFU, DFFB / Fold change vs veh, DFFB / RFU, FOXP1 / Fold change vs veh, FOXP1 / RFU, CARD8 / Fold change vs veh, CARD8 / RFU, STRN3 / Fold change vs veh, STRN3 / RFU, ADK / Fold change vs veh, ADK / RFU, RASSF2 / Fold change vs veh, RASSF2 / RFU, WIPF1 / Fold change vs veh, WIPF1 / RFU, LARP1B / Fold change vs veh, LARP1B / RFU, RASA1 / Fold change vs veh, RASA1 / RFU, RB1 / Fold change vs veh, RB1 / RFU, PPFIA1 / Fold change vs veh, PPFIA1 / RFU, MAT2A / Fold change vs veh, MAT2A / RFU, CCT5 / Fold change vs veh, CCT5 / RFU, WDR92 / Fold change vs veh, WDR92 / RFU, CUX1 / Fold change vs veh, CUX1 / RFU, TTC7A / Fold change vs veh, TTC7A / RFU, TMEM135 / Fold change vs veh, TMEM135 / RFU, DEPTOR / Fold change vs veh, DEPTOR / RFU, CPM / Fold change vs veh, CPM / RFU, DNAJB6 / Fold change vs veh, DNAJB6 / RFU, CACNA2D3 / Fold change vs veh, CACNA2D3 / RFU, DTX4 / Fold change vs veh, DTX4 / RFU, TFCP2 / Fold change vs veh, TFCP2 / RFU, GMCL1 /// GMCL1P1 / Fold change vs veh, GMCL1 /// GMCL1P1 / RFU, AEBP2 / Fold change vs veh, AEBP2 / RFU, SNHG1 /// SNORD22 /// SNORD25 /// SNORD26 /// SNORD27 /// SNORD28 /// SNORD29 /// SNORD31 / Fold change vs veh, SNHG1 /// SNORD22 /// SNORD25 /// SNORD26 /// SNORD27 /// SNORD28 /// SNORD29 /// SNORD31 / Fold change (Aza/veh), C12orf56 (ProbeSet 11735607_a_at) / Fold change (ACY-1035/veh), C12orf56 (ProbeSet 11735607_a_at) / Fold change (Aza/veh), FGFR1OP (ProbeSet 11751329_s_at) / Fold change (ACY-1035/veh), FGFR1OP (ProbeSet 11751329_s_at) / Fold change (Aza/veh), VPS36 (ProbeSet 11739960_a_at) / Fold change (ACY-1035/veh), VPS36 (ProbeSet 11739960_a_at) / RFU SYPL1 (11715823_x_at) / Fold change /veh SYPL1 (11715823_x_at) / RFU IGFBP7 (11715501_s_at) / Fold change /veh IGFBP7 (11715501_s_at) / RFU REEP3 (11722064_at) / Fold change /veh REEP3 (11722064_at) / RFU IGLL1 (11728026_x_at) / Fold change /veh IGLL1 (11728026_x_at): dose or concentration left out as unconfirmed. Conditions: ProbeSet 11724526_at; LIST B.

`Nc1ncn([C@@H]2O[C@H](CO)[C@@H](O)[C@H]2O)c(=O)n1` [azacitidine]: the “RFU, FAHD1” value came to 119.69 RFU.

The record behind these values is PMC5218480 (PLoS ONE, 2017).
